Key:
[1] = system: thrombin; assay: X-ray crystallography of freely mounted crystal after dripping on picoliter drops (FIG. 4); type: binding; details: active center of thrombin around Ser195; 2F0-F0 density outlined at 1σ
Text: FIG. 4: The covalently bound inhibitor as well as individual amino acids in the environment of the active center of the thrombin around Ser195 are depicted in the form of a stick model. Oxygen atoms are depicted in red, sulfur atoms in yellow, nitrogen atoms in blue, and carbon atoms in gray. Additionally, the inhibitor is overlaid by its 2F0-F0 electron density (outlined at 1σ). The inhibitor is clearly defined concerning its electron density.
Thereby, evidence has been offered that the approach of dripping picoliter drops onto a protein crystal by use of the free mounting system works.

[2] = system: DPIV (dipeptidyl peptidase IV); assay: X-ray crystallography of DPIV crystal treated with inhibitor (FIG. 5); type: binding; details: active center of DPIV around Ser630; 2F0-F0 density outlined at 1σ
Text: Oxygen atoms are depicted in red, nitrogen atoms in blue, and carbon atoms in gray. Additionally, the inhibitor as well as Ser630, which is covalently coupled to the inhibitor, is overlaid by its 2F0-F0 electron density (outlined at 1σ). The inhibitor is clearly defined concerning its electron density (FIG. 5).
From the used tripeptide having the sequence Ile-Pro-Ile, the C-terminal isoleucine is cleaved off while the dipeptide remains covalently linked with Ser630 and is not cleaved off.
The target enzyme was DPIV (dipeptidyl peptidase IV). Different fragments were solved in a cocktail together. In a cocktail (i), molecules of two different molecule species were combined, i.e. a mimetic (altered peptide backbone (vinyl derivative) of the N-terminal dipeptide of a substrate of the DPIV (having a free N-terminus) and, on the other hand, a mimetic (also a dipeptide with acetylated, blocked N-terminus, also. as. framework mimetic—vinyl derivative). In a second cocktail (ii), five different molecule species (which differed concerning both side chains of the two dipeptide mimetics) from each of the two mimetic classes, i.e. 10 molecule species altogether, were combined in a cocktail.

O=S(=O)(F)Cc1ccccc1 [PMSF, phenylmethylsulfonyl fluoride]
binding seen in experimentally determined electron density [1]: covalent bond of the PMSF at Ser195

diprotin A
binding mode seen in electron density [2]: rather acts as a suicide substrate than as an inhibitor

Source: patent US20070110901A1, “Method for identifying weakly binding molecule fragments having ligand properties, whereby the molecule fragments are applied in the form of microdrops of a corresponding solution to the crystal” (Proteros Biostructures GMBH, priority 2003, published 2007)
